The structures appear in SMILES notation.

Our source for the Km values is PMC8623467, “Biochemical Characterization of Recombinant Isocitrate Dehydrogenase and Its Putative Role in the Physiology of an Acidophilic Micrarchaeon” (Microorganisms, 2021).

For this assay, the system named is T1, MhIDH6x His.
T1 construct: gene icd2; full-length; N-terminal 6xHis tag kept (primer: MHHHHHHEEQKKESIS...); C-terminus AIKSA from primer; pBAD202, E. coli Rosetta pRARE; Ni-IMAC and SEC; homodimer only modelled
Nature of the assay: NADPH formation at […] nm, Michaelis-Menten fit. It is filed as biochemical, Candidatus Micrarchaeum harzensis. The settings on record: 100 mM TRIS/HCl pH 8.0, 28 °C, Mg2+ (5 mM MgCl2 standard mixture).

Usually Km stands for the concentration of substrate that gives half-maximal velocity. With `O=C(O)CC(C(=O)O)C(O)C(=O)O` (racemic) [DL-isocitrate], the Michaelis constant (Km) (20 mM NADP+ (Figure 4 legend)) was determined as 53 ± 5.63 µM.
On to `NC(=O)c1ccc[n+]([C@@H]2O[C@H](COP(=O)(O)OP(=O)(O)OC[C@H]3O[C@@H](n4cnc5c(N)ncnc54)[C@H](OP(=O)(O)O)[C@@H]3O)[C@@H](O)[C@H]2O)c1` [NADP^+], for which the Km (1 mM DL-isocitrate) came out at 1940 ± 120 µM.
